Measured values taken from PubChem BioAssay AID1259407 (Chemical Carcinogenesis Research Information System (CCRIS), 2018).
The source made the active and inactive calls. The rule behind the calls is not given here.

Test system: CCRIS mutagenicity, Ames/micronucleus/aberration tests
Test: CCRIS mutagenicity studies
[1] = Test System: AMES SALMONELLA TYPHIMURIUM, Strain/Indicator: TA98, Metabolic Activation: NONE, Method: STANDARD PLATE
[2] = Test System: AMES SALMONELLA TYPHIMURIUM, Strain/Indicator: TA98, Metabolic Activation: RAT, LIVER, S-9, AROCLOR 1254, Method: STANDARD PLATE
[3] = Test System: AMES SALMONELLA TYPHIMURIUM, Strain/Indicator: TA100, Metabolic Activation: NONE, Method: STANDARD PLATE
[4] = Test System: AMES SALMONELLA TYPHIMURIUM, Strain/Indicator: TA100, Metabolic Activation: RAT, LIVER, S-9, AROCLOR 1254, Method: STANDARD PLATE
[5] = Test System: AMES SALMONELLA TYPHIMURIUM, Strain/Indicator: TA1535, Metabolic Activation: NONE, Method: STANDARD PLATE
[6] = Test System: AMES SALMONELLA TYPHIMURIUM, Strain/Indicator: TA1535, Metabolic Activation: RAT, LIVER, S-9, AROCLOR 1254, Method: STANDARD PLATE

With `CCCCNC(=O)c1cc(N)ccc1Oc1ccc(C)cc1` the mutagenic call (Test System: Ames Salmonella typhimurium, Strain/Indicator: TA98, Metabolic Activation: None, Method: Preincubation) was “inactive; negative. data for pa31 mentioned in abstract only”, the mutagenic call (Test System: Ames Salmonella typhimurium, Strain/Indicator: TA98, Metabolic Activation: Rat, Liver, S-9, Phenobarbital and beta-naphthoflavone, Method: Preincubation) was “active; positive” and the mutagenic call (Test System: Ames Salmonella typhimurium, Strain/Indicator: TA100, Metabolic Activation: None, Method: Preincubation) was “inactive; negative. data for pa31 mentioned in abstract only”. The mutagenic call (Test System: Ames Salmonella typhimurium, Strain/Indicator: TA100, Metabolic Activation: Rat, Liver, S-9, Phenobarbital and beta-naphthoflavone, Method: Preincubation) was “active; positive”, the mutagenic call (Test System: Ames Salmonella typhimurium, Strain/Indicator: TA102, Metabolic Activation: None, Method: Preincubation) was “inactive; negative. data for pa31 mentioned in abstract only” and the mutagenic call (Test System: Ames Salmonella typhimurium, Strain/Indicator: TA1535, Metabolic Activation: None, Method: Preincubation) was “inactive; negative. data for pa31 mentioned in abstract only”. The mutagenic call (Test System: Ames Salmonella typhimurium, Strain/Indicator: TA1537, Metabolic Activation: None, Method: Preincubation) was “inactive; negative. data for pa31 mentioned in abstract only”.
`N#CCCl` was tested, and the mutagenic call [1] was “inactive; negative”, the mutagenic call [2] was “inactive; negative” and the mutagenic call (Test System: AMES SALMONELLA TYPHIMURIUM, Strain/Indicator: TA100, Metabolic Activation: NONE, Method: FLUCTUATION TEST) was “inactive; negative”. For the same compound, the mutagenic call [3] was “inactive; negative”, the mutagenic call (Test System: AMES SALMONELLA TYPHIMURIUM, Strain/Indicator: TA100, Metabolic Activation: RAT, LIVER, S-9, AROCLOR 1254, Method: FLUCTUATION TEST) was “active; positive” and the mutagenic call [4] was “inactive; negative”. For the same compound, the mutagenic call [5] was “inactive; negative” and the mutagenic call [6] was “inactive; negative”.
With `CCCCCON=O` the mutagenic call (Test System: AMES SALMONELLA TYPHIMURIUM, Strain/Indicator: TA98, Metabolic Activation: HAMSTER, LIVER, S-9, AROCLOR 1254, Method: STANDARD PLATE) was “inactive; negative”, the mutagenic call [1] was “inactive; negative” and the mutagenic call [2] was “inactive; negative”. The mutagenic call (Test System: AMES SALMONELLA TYPHIMURIUM, Strain/Indicator: TA100, Metabolic Activation: HAMSTER, LIVER, S-9, AROCLOR 1254, Method: STANDARD PLATE) was “active; positive”, the mutagenic call [3] was “active; positive” and the mutagenic call [4] was “inactive; negative”. For the same compound, the mutagenic call (Test System: AMES SALMONELLA TYPHIMURIUM, Strain/Indicator: TA1535, Metabolic Activation: HAMSTER, LIVER, S-9, AROCLOR 1254, Method: STANDARD PLATE) was “active; positive”, the mutagenic call [5] was “active; positive” and the mutagenic call [6] was “active; positive”. For the same compound, the mutagenic call (Test System: AMES SALMONELLA TYPHIMURIUM, Strain/Indicator: TA1537, Metabolic Activation: HAMSTER, LIVER, S-9, AROCLOR 1254, Method: STANDARD PLATE) was “inactive; negative”, the mutagenic call (Test System: AMES SALMONELLA TYPHIMURIUM, Strain/Indicator: TA1537, Metabolic Activation: NONE, Method: STANDARD PLATE) was “inactive; negative” and the mutagenic call (Test System: AMES SALMONELLA TYPHIMURIUM, Strain/Indicator: TA1537, Metabolic Activation: RAT, LIVER, S-9, AROCLOR 1254, Method: STANDARD PLATE) was “inactive; negative”. The mutagenic call (Test System: MOUSE LYMPHOMA, Strain/Indicator: L5178Y (TK+/TK-), Metabolic Activation: NONE, Method: SUSPENSION/PLATE) was “inactive; negative. reevaluation of results: inconclusive/negative” and the mutagenic call (Test System: MOUSE LYMPHOMA, Strain/Indicator: L5178Y (TK+/TK-), Metabolic Activation: RAT, LIVER, S-9, AROCLOR 1254, Method: SUSPENSION/PLATE) was “inactive; negative. reevaluation of results: negative”.
For `CC(=O)ON(C(C)=O)c1ccc(-c2ccccc2)cc1`, the mutagenic call (Test System: AMES SALMONELLA TYPHIMURIUM, Strain/Indicator: TA98(1,8-DNP6), Metabolic Activation: HUMAN, UROEPITHELIAL CELL, MICROSOMES, Method: PREINCUBATION) was “active; positive”, the mutagenic call (Test System: AMES SALMONELLA TYPHIMURIUM, Strain/Indicator: TA98(1,8-DNP6), Metabolic Activation: NONE, Method: PREINCUBATION) was “active; positive” and the mutagenic call (Test System: AMES SALMONELLA TYPHIMURIUM, Strain/Indicator: TA98, Metabolic Activation: DOG, BLADDER, MICROSOMES, Method: PREINCUBATION) was “active; positive”. The mutagenic call (Test System: AMES SALMONELLA TYPHIMURIUM, Strain/Indicator: TA98, Metabolic Activation: DOG, LIVER, MICROSOMES, Method: PREINCUBATION) was “active; positive”, the mutagenic call (Test System: AMES SALMONELLA TYPHIMURIUM, Strain/Indicator: TA98, Metabolic Activation: HUMAN, UROEPITHELIAL CELL, CYTOSOL, Method: PREINCUBATION) was “inactive; negative” and the mutagenic call (Test System: AMES SALMONELLA TYPHIMURIUM, Strain/Indicator: TA98, Metabolic Activation: HUMAN, UROEPITHELIAL CELL, MICROSOMES, Method: PREINCUBATION) was “active; positive”. The mutagenic call (Test System: AMES SALMONELLA TYPHIMURIUM, Strain/Indicator: TA98, Metabolic Activation: HUMAN, UROEPITHELIAL CELL, S-9, Method: PREINCUBATION) was “active; positive”, the mutagenic call (Test System: AMES SALMONELLA TYPHIMURIUM, Strain/Indicator: TA98, Metabolic Activation: NONE, Method: PREINCUBATION) was “active; positive” and the mutagenic call (Test System: AMES SALMONELLA TYPHIMURIUM, Strain/Indicator: TA98, Metabolic Activation: RAT, BLADDER, MICROSOMES, Method: PREINCUBATION) was “active; positive”. For the same compound, the mutagenic call (Test System: AMES SALMONELLA TYPHIMURIUM, Strain/Indicator: TA98, Metabolic Activation: RAT, LIVER, MICROSOMES, Method: PREINCUBATION) was “active; positive”, the mutagenic call (Test System: AMES SALMONELLA TYPHIMURIUM, Strain/Indicator: YG1024, Metabolic Activation: HUMAN, UROEPITHELIAL CELL, MICROSOMES, Method: PREINCUBATION) was “active; positive” and the mutagenic call (Test System: UDS HUMAN FIBROBLASTS, Strain/Indicator: THY INCORP (NON-S-PHASE), Metabolic Activation: NONE, Method: AUTORADIOGRAPHY) was “active; positive”.
With `CC(=O)Nc1ccc(CC(=O)O)cc1` the mutagenic call (Test System: AMES SALMONELLA TYPHIMURIUM, Strain/Indicator: TA98, Metabolic Activation: NONE) was “inactive; negative”, the mutagenic call (Test System: AMES SALMONELLA TYPHIMURIUM, Strain/Indicator: TA98, Metabolic Activation: RAT, LIVER, S-9, AROCLOR 1254) was “inactive; negative” and the mutagenic call (Test System: AMES SALMONELLA TYPHIMURIUM, Strain/Indicator: TA100, Metabolic Activation: NONE) was “inactive; negative”. The mutagenic call (Test System: AMES SALMONELLA TYPHIMURIUM, Strain/Indicator: TA100, Metabolic Activation: RAT, LIVER, S-9, AROCLOR 1254) was “inactive; negative”, the mutagenic call (Test System: AMES SALMONELLA TYPHIMURIUM, Strain/Indicator: TA1535, Metabolic Activation: NONE) was “inactive; negative” and the mutagenic call (Test System: AMES SALMONELLA TYPHIMURIUM, Strain/Indicator: TA1535, Metabolic Activation: RAT, LIVER, S-9, AROCLOR 1254) was “inactive; negative”. For the same compound, the mutagenic call (Test System: AMES SALMONELLA TYPHIMURIUM, Strain/Indicator: TA1537, Metabolic Activation: NONE) was “inactive; negative”, the mutagenic call (Test System: AMES SALMONELLA TYPHIMURIUM, Strain/Indicator: TA1537, Metabolic Activation: RAT, LIVER, S-9, AROCLOR 1254) was “inactive; negative” and the mutagenic call (Test System: AMES SALMONELLA TYPHIMURIUM, Strain/Indicator: TA1538, Metabolic Activation: NONE) was “inactive; negative”. The mutagenic call (Test System: AMES SALMONELLA TYPHIMURIUM, Strain/Indicator: TA1538, Metabolic Activation: RAT, LIVER, S-9, AROCLOR 1254) was “inactive; negative”, the mutagenic call (Test System: E. COLI, Strain/Indicator: WP2, Metabolic Activation: NONE) was “inactive; negative” and the mutagenic call (Test System: E. COLI, Strain/Indicator: WP2, Metabolic Activation: RAT, LIVER, S-9, AROCLOR 1254) was “inactive; negative”. For the same compound, the mutagenic call (Test System: E. COLI, Strain/Indicator: WP2 UVRA, Metabolic Activation: NONE) was “inactive; negative” and the mutagenic call (Test System: E. COLI, Strain/Indicator: WP2 UVRA, Metabolic Activation: RAT, LIVER, S-9, AROCLOR 1254) was “inactive; negative”.
For `COC(=O)COc1ccc(Cl)cc1Cl`, the mutagenic call (Test System: AMES SALMONELLA TYPHIMURIUM, Strain/Indicator: TA97, Metabolic Activation: NONE, Method: STANDARD PLATE) was “inactive; negative”, the mutagenic call (Test System: AMES SALMONELLA TYPHIMURIUM, Strain/Indicator: TA97, Metabolic Activation: RAT, LIVER, S-9, AROCLOR 1254, Method: STANDARD PLATE) was “inactive; negative” and the mutagenic call [1] was “inactive; negative”. The mutagenic call [2] was “inactive; negative”, the mutagenic call [3] was “inactive; negative” and the mutagenic call [4] was “inactive; negative”. The mutagenic call (Test System: AMES SALMONELLA TYPHIMURIUM, Strain/Indicator: TA102, Metabolic Activation: NONE, Method: STANDARD PLATE) was “inactive; negative” and the mutagenic call (Test System: AMES SALMONELLA TYPHIMURIUM, Strain/Indicator: TA102, Metabolic Activation: RAT, LIVER, S-9, AROCLOR 1254, Method: STANDARD PLATE) was “inactive; negative”.
